# US20230365592A1 (Agios Pharmaceuticals, Inc., priority 2022, published 2023)
# Molecular target: T1, human PAH with the R408W mutation (Homo sapiens, UniProt P00439, R408W)
# T1 construct: expressed in transfected cells
# T1 sequence (P00439 1-452 R408W): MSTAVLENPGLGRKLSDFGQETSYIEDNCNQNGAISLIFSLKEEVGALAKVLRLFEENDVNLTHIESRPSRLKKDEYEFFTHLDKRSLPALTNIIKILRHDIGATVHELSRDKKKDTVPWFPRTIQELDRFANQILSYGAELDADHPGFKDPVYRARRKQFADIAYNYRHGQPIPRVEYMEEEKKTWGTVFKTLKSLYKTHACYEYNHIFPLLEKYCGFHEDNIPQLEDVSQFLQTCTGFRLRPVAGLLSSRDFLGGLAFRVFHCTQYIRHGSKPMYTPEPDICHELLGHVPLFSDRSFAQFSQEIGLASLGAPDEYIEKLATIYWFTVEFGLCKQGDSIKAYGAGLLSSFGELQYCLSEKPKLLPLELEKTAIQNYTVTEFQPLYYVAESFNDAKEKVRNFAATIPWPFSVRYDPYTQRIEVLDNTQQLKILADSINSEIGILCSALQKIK
# Assay: Cell Based Phenylalanine Flux Assay;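 note: after compound treatment, cells received sepiapterin plus isotope-labelled Phenylalanine for 4 hours, then labelled Tyrosine in the medium was quantified, 10-point 2-fold dilution series run in duplicate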
# Details: A375 cells expressing human R408W PAH; 24 hrs compound incubation; 13C-Tyrosine by LC-MS; average where tested multiple times; read-out: AC50
row,Structure (SMILES),AC50 [nM]
1,"CC(C)(O)c1nc(C(F)F)c(C(=O)N2CCc3[nH]cnc3[C@H]2c2cc3cc(F)ccn3n2)o1 [Example 1084, (S)-(4-(difluoromethyl)-2-(2-hydroxypropan-2-yl)oxazol-5-yl)(4-(5-fluoropyrazolo[1,5-a]pyridin-2-yl)-6,7-dihydro-1H-imidazo[4,5-c]pyridin-5(4H)-yl)methanone]",< 500
2,"CC(C)(O)c1nc(C(F)F)c(C(=O)N2CCc3[nH]cnc3[C@@H]2c2cc3cc(F)ccn3n2)o1 [Example 1085, (R)-(4-(difluoromethyl)-2-(2-hydroxypropan-2-yl)oxazol-5-yl)(4-(5-fluoropyrazolo[1,5-a]pyridin-2-yl)-6,7-dihydro-1H-imidazo[4,5-c]pyridin-5(4H)-yl)methanone]",1000 to 5000
3,"Cc1cccc2cc([C@@H]3c4nc[nH]c4CCN3C(=O)c3nc(Cl)nn3C)nn12 [Example 1086, (S)-(3-chloro-1-methyl-1H-1,2,4-triazol-5-yl)(4-(7-methylpyrazolo[1,5-a]pyridin-2-yl)-6,7-dihydro-1H-imidazo[4,5-c]pyridin-5(4H)-yl)methanone]",< 500
4,"O=C(c1ccnn1C(F)F)N1CCc2[nH]cnc2[C@H]1c1cc2ccc(F)cn2n1 [Example 1088, (S)-(1-(difluoromethyl)-1H-pyrazol-5-yl)(4-(6-fluoropyrazolo[1,5-a]pyridin-2-yl)-6,7-dihydro-1H-imidazo[4,5-c]pyridin-5(4H)-yl)methanone]",500 to 1000
5,"O=C(c1ccnn1C(F)F)N1CCc2[nH]cnc2[C@@H]1c1cc2ccc(F)cn2n1 [Example 1089, (R)-(1-(difluoromethyl)-1H-pyrazol-5-yl)(4-(6-fluoropyrazolo[1,5-a]pyridin-2-yl)-6,7-dihydro-1H-imidazo[4,5-c]pyridin-5(4H)-yl)methanone]",> 5000
6,"O=C(c1nnc(-c2ccccn2)o1)N1CCc2[nH]cnc2[C@H]1c1cc2ccc(F)cn2n1 [Example 1090, (S)-(4-(6-fluoropyrazolo[1,5-a]pyridin-2-yl)-6,7-dihydro-1H-imidazo[4,5-c]pyridin-5(4H)-yl)(5-(pyridin-2-yl)-1,3,4-oxadiazol-2-yl)methanone]",500 to 1000
7,"O=C(c1nnc(-c2ccccn2)o1)N1CCc2[nH]cnc2[C@@H]1c1cc2ccc(F)cn2n1 [Example 1091, (R)-(4-(6-fluoropyrazolo[1,5-a]pyridin-2-yl)-6,7-dihydro-1H-imidazo[4,5-c]pyridin-5(4H)-yl)(5-(pyridin-2-yl)-1,3,4-oxadiazol-2-yl)methanone]",> 5000
8,"O=C(c1ccnn1C(F)F)N1CCc2[nH]cnc2[C@H]1c1cc2cc(F)ccn2n1 [Example 1092, (S)-(1-(difluoromethyl)-1H-pyrazol-5-yl)(4-(5-fluoropyrazolo[1,5-a]pyridin-2-yl)-6,7-dihydro-1H-imidazo[4,5-c]pyridin-5(4H)-yl)methanone]",500 to 1000
9,"O=C(c1ccnn1C(F)F)N1CCc2[nH]cnc2[C@@H]1c1cc2cc(F)ccn2n1 [Example 1093, (R)-(1-(difluoromethyl)-1H-pyrazol-5-yl)(4-(5-fluoropyrazolo[1,5-a]pyridin-2-yl)-6,7-dihydro-1H-imidazo[4,5-c]pyridin-5(4H)-yl)methanone]",1000 to 5000
10,"O=C(c1nnc(C2CC2)o1)N1CCc2[nH]cnc2[C@H]1c1cc2c(Cl)cccn2n1 [Example 1094, (S)-(4-(4-chloropyrazolo[1,5-a]pyridin-2-yl)-6,7-dihydro-1H-imidazo[4,5-c]pyridin-5(4H)-yl)(5-cyclopropyl-1,3,4-oxadiazol-2-yl)methanone]",< 500
11,"O=C(c1nnc(C2CC2)o1)N1CCc2[nH]cnc2[C@@H]1c1cc2c(Cl)cccn2n1 [Example 1095, (R)-(4-(4-chloropyrazolo[1,5-a]pyridin-2-yl)-6,7-dihydro-1H-imidazo[4,5-c]pyridin-5(4H)-yl)(5-cyclopropyl-1,3,4-oxadiazol-2-yl)methanone]",> 5000
12,"COc1ccc(-c2nnc(C(=O)N3CCc4[nH]cnc4[C@@H]3c3cc4cccc(Cl)n4n3)o2)nc1 [Example 1096, (R)-(4-(7-chloropyrazolo[1,5-a]pyridin-2-yl)-6,7-dihydro-1H-imidazo[4,5-c]pyridin-5(4H)-yl)(5-(5-methoxypyridin-2-yl)-1,3,4-oxadiazol-2-yl)methanone]",> 5000
13,"COc1ccc(-c2nnc(C(=O)N3CCc4[nH]cnc4[C@H]3c3cc4cccc(Cl)n4n3)o2)nc1 [Example 1097, (S)-(4-(7-chloropyrazolo[1,5-a]pyridin-2-yl)-6,7-dihydro-1H-imidazo[4,5-c]pyridin-5(4H)-yl)(5-(5-methoxypyridin-2-yl)-1,3,4-oxadiazol-2-yl)methanone]",500 to 1000
14,"Cn1cnc(-c2nnc(C(=O)N3CCc4[nH]cnc4[C@@H]3c3cc4cccc(Cl)n4n3)o2)c1 [Example 1098, (R)-(4-(7-chloropyrazolo[1,5-a]pyridin-2-yl)-6,7-dihydro-1H-imidazo[4,5-c]pyridin-5(4H)-yl)(5-(1-methyl-1H-imidazol-4-yl)-1,3,4-oxadiazol-2-yl)methanone]",> 5000
15,"Cn1cnc(-c2nnc(C(=O)N3CCc4[nH]cnc4[C@H]3c3cc4cccc(Cl)n4n3)o2)c1 [Example 1099, (S)-(4-(7-chloropyrazolo[1,5-a]pyridin-2-yl)-6,7-dihydro-1H-imidazo[4,5-c]pyridin-5(4H)-yl)(5-(1-methyl-1H-imidazol-4-yl)-1,3,4-oxadiazol-2-yl)methanone]",500 to 1000
16,"Cn1cc(-c2nnc(C(=O)N3CCc4[nH]cnc4[C@H]3c3cc4ccc(F)cn4n3)o2)cn1 [Example 1100, (S)-(4-(6-fluoropyrazolo[1,5-a]pyridin-2-yl)-6,7-dihydro-1H-imidazo[4,5-c]pyridin-5(4H)-yl)(5-(1-methyl-1H-pyrazol-4-yl)-1,3,4-oxadiazol-2-yl)methanone]",500 to 1000
17,"Cn1cc(-c2nnc(C(=O)N3CCc4[nH]cnc4[C@@H]3c3cc4ccc(F)cn4n3)o2)cn1 [Example 1101, (R)-(4-(6-fluoropyrazolo[1,5-a]pyridin-2-yl)-6,7-dihydro-1H-imidazo[4,5-c]pyridin-5(4H)-yl)(5-(1-methyl-1H-pyrazol-4-yl)-1,3,4-oxadiazol-2-yl)methanone]",> 5000
18,"Cn1ccc(-c2nnc(C(=O)N3CCc4[nH]cnc4[C@H]3c3cc4ccc(F)cn4n3)o2)n1 [Example 1102, (S)-(4-(6-fluoropyrazolo[1,5-a]pyridin-2-yl)-6,7-dihydro-1H-imidazo[4,5-c]pyridin-5(4H)-yl)(5-(1-methyl-1H-pyrazol-3-yl)-1,3,4-oxadiazol-2-yl)methanone]",500 to 1000
19,"Cn1ccc(-c2nnc(C(=O)N3CCc4[nH]cnc4[C@@H]3c3cc4ccc(F)cn4n3)o2)n1 [Example 1103, (R)-(4-(6-fluoropyrazolo[1,5-a]pyridin-2-yl)-6,7-dihydro-1H-imidazo[4,5-c]pyridin-5(4H)-yl)(5-(1-methyl-1H-pyrazol-3-yl)-1,3,4-oxadiazol-2-yl)methanone]",> 5000
20,"O=C(c1ocnc1C(F)F)N1CCc2[nH]cnc2[C@@H]1c1cc2ccc(C(F)(F)F)cn2n1 [Example 1105, (R)-(4-(difluoromethyl)oxazol-5-yl)(4-(6-(trifluoromethyl)pyrazolo[1,5-a]pyridin-2-yl)-6,7-dihydro-1H-imidazo[4,5-c]pyridin-5(4H)-yl)methanone]",1000 to 5000
